Laboratory results from patent US12648924B2, “Prevention and treatment of effects of aging and age-associated disorders with ketone supplementation” (priority 2020, dated 2026).

Tests used:
Assay type in all cases: in vivo, VM/Dk mice
[1] = Tolerability of KDE incorporated in food, bodyweight and food intake (pilot work, Experiment 4b)
From the text: Food Intake and Ketone Diester Administration: Standard diet dry food (2018 Teklad Global 18% Protein Rodent Diet, Harlan) was mixed with deionized water (1 g dry food/mL deionized water) into a consistent paste and placed on a 100×15 mm dish. Food intake was tracked daily at the same time (7:00-9:00) and replaced every other day to ensure fresh food. Due to sinusoidal/oscillatory changes in food intake observed every other day (2-day pattern), a 4-day (2×2-day pattern) average was taken at EOL and baseline to calculate changes in anorexic symptoms. KDE was chemically synthesized with physical properties, preparation, and analysis described previously. For evaluation of KDE effect on anorexia, food intake was tracked daily at the same time (7:00-9:00). […] Consequently, upon VM-M3 inoculation, KDE+VM-M3 received ad libitum 0% KDE/weight day 1, 5% KDE day 2, 10% KDE day 3, 15% KDE day 4, 20% KDE day 5, 25% KDE day 6, and 30% KDE day 7 through 21 on top of HPSD. VM-M3 and Sham received HPSD ad libitum. As pilot work indicated potential water evaporation in food paste in ventilated cages, dehydration standard curve was calculated across various volumes of plated food (5, 10, 25.0, 50.0, 100 g/food) with and without KDE over a two-day period. Standard curve equation [water evaporated=0.2472 (original grams of water)+1.364] was used to correct for amount of dehydration prior to calculating caloric intake. For LPS experiments, 1×4 mL/kg KDE gavage or 1×4 mL/kg water gavage were administered for KDE+LPS and LPS-only, respectively. […]
To determine whether KDE could alter systemic metabolism, blood metabolites were measured at baseline following a standard diet and after a 4-day transition to a standard diet supplemented with 20% KDE, 25% KDE, or 30% KDE. […] To determine whether KDE could alter metabolism in CACS, blood ketones, glucose, and lactate were measured weekly. […] Thus, to determine if KDE altered tumor burden, in vivo bioluminescence imaging was analyzed weekly.

[2] = Blood glucose and ketones after single KDE gavage at various dosages (Experiment 5a); conditions: vs timepoint 0
Procedure: Metabolic Biomarkers: Blood glucose and R β-hydroxybutyrate were measured using Precision Xtra™ Blood Glucose & Ketone Monitoring System (Abbott Laboratories, Abbott Park, IL). Blood lactate concentration was measured using Lactate Plus Lactate Meter (Nova Biomedical). IGF-1 and Insulin were relabeled for blinded analysis and subsequently analyzed using Luminex 100 system (Luminex, Austin, TX) with R&D Systems Mouse 1-Plex Luminex Assay (R&D Systems, Minneapolis, MN) and Milliplex Mouse Multiplex Kit (Millipore, St. Charles, MO), respectively, using manufacturer's protocol.
Ketone Diester Mitigates Bodyweight Loss and Comorbidities in Inflammation-Induced Atrophy: Reductions in anorexia, tumor burden, and skeletal muscle atrophy all present ideal outcomes in the clinical environment of CACS. It should be noted, however, that altered anorexia and tumor burden can confound interpretation of the direct effects of the KDE on skeletal muscle atrophy. […] Due to the rapid nature of LPS-induced atrophy, various dosages of KDE were gavaged to determine their ability to rapidly shift systemic metabolism. […] To determine KDE's effect on cancer-independent catabolism, a maximal non-fatal LPS dose (10 mg/kg) was administered, followed by a single 4 mL/kg water (LPS) or KDE (KDE+LPS) gavage. KDE attenuated bodyweight loss 47% within the first 24 hours post-LPS administration (FIG. 7B).

[3] = KDE in LPS-induced atrophy, pair-fed animals (Experiment 5c); conditions: single 4 mL/kg KDE gavage after 10 mg/kg LPS, 1 day post LPS, vs LPS group

CC(=O)CC(=O)OCCC(C)OC(=O)CC(C)=O (centres unmarked) [KDE, R/S 1,3-butanediol acetoacetate diester]
ad libitum food intake ([1]; 20-30% by weight KDE incorporated in standard diet, pilot work): reductions in ad libitum food intake
tolerability as indicated by bodyweight maintenance ([1]; 30% KDE reached incrementally (5%/day) over 7 days): well-tolerated
bodyweight across time ([1]; incremental incorporation 0-30% KDE/weight at 5% KDE/weight/day, highly palatable standard diet): did not result in changes in bodyweight across time
blood glucose ([2]; 4 mL/kg KDE gavage): significant and rapid reductions
blood ketones ([2]; 4 mL/kg KDE gavage): elevations in blood ketones
blood glucose ([2]; 5 mL/kg KDE gavage): significant and rapid reductions
blood ketones ([2]; 5 mL/kg KDE gavage): elevations in blood ketones
reduction of bodyweight loss [3]: 28%
